Data as given in patent US20250213547A1, “METHODS OF TREATING NEUROLOGICAL DISEASES” (priority 2022, published 2025).
Where two headings read alike, the source gives them in different places.

Key:
[1] = system: plasma 24HC; assay: Healthy Japanese subjects, Part 1: plasma 24HC pharmacodynamics; assay type: in vivo, human; details: for AUEC24 of plasma 24HC / AUECt of plasma 24HC (time 0 to last sampling time point) / E24 of plasma 24HC (observed effect at 24 hours) / Emax of plasma 24HC (maximum drug-induced effect): mean (% CV); for Emax: Homo sapiens, read-out: % change from Baseline in Emax of plasma 24HC; for Emax / % change from Baseline in AUEC24 of plasma 24HC / % change from Baseline in E24 of plasma 24HC: mean; for Time to Emax of plasma 24HC: median (min-max)
Method: (§1) On Day 1 of each dose level, a single dose of TAK-935 or placebo was administered, and safety, PK and PD were evaluated.
Blood samples for PD analysis of plasma 24HC level were collected into blood collection tubes (vacutainer) containing the anticoagulant K2EDTA.
The PD assessments described below were performed at the time points stipulated in the schedule of procedures. The additional PD endpoints included the following PD parameters for plasma 24HC: […]

[2] = Healthy Japanese subjects, Part 1 (single dose 200, 600, 1200 mg tablets): PK of TAK-935 and M-I; assay type: in vivo, human; details: plasma; for Vd/F: read-out: Vz/F; for half-life: read-out: t1/2z (terminal disposition phase half-life) (converted); for AUC: read-out: Mean AUC24
Method: This study consisted of 2 parts, and was a randomized, double-blind, placebo-controlled study to assess safety, tolerability, and PK and PD of TAK-935 when administered orally in healthy Japanese subjects.
as §1
After the screening visit, eligible participants checked—in on Day-2. On Day 1, eligible participants were randomized 6:2 to TAK-935 or placebo in each dose group in double-blinded fashion. No stratification variables were used for randomization. On the same day, study drug was administered by oral administration of single dosing of TAK-935 to each cohort at each dose level. The subjects were discharged on Day 3. Intensive PK samplings were performed from Day 1 to Day 3.
Subjects received a single dose of TAK-935 or placebo of 200 mg, 600 mg, or 1200 mg with 150 mL of water, after fasting for at least 10 hours and remained fasted until 4 hours after dosing.
Blood samples for PK analysis of TAK-935 and its metabolites (M-I) were collected into blood collection tubes (vacutainer) containing the anticoagulant K2EDTA (Table 40e and Table 40f).
The PK parameters of TAK-935 and its metabolites (M-I) were determined from the concentration-time profiles for all evaluable subjects. Actual sampling times, rather than scheduled sampling times, were used in all computations involving sampling times. The following PK parameters were calculated from plasma concentrations of TAK-935 and its metabolites (M-I), unless otherwise specified: […]

[3] = TAK-935 200 mg single dose, mean
[4] = TAK-935 600 mg single dose, mean
[5] = TAK-935 1200 mg single dose, mean
[6] = human, oral, TAK-935 200 mg single dose, mean
[7] = human, oral, TAK-935 600 mg single dose, mean
[8] = human, oral, TAK-935 1200 mg single dose, mean
[9] = human, oral, TAK-935, single dose 200 mg
[10] = human, oral, TAK-935, single dose 600 mg
[11] = human, oral, TAK-935, single dose 1200 mg

For `O=C(c1cccnc1-c1ccncc1)N1CCC(O)(Cc2ccccc2)CC1` [soticlestat], the “maximum decrease in percent change from Baseline of mean AUEC24” value ([1]; 1200 mg single dose, compared with placebo) was “approximately 11.4%”, the “AUEC24 of plasma 24HC” value ([1]; Day 1, single dose 200 mg) was 1017 (27.5) h*ng/mL and the “AUEC24 of plasma 24HC” value ([1]; Day 1, single dose 600 mg) was 1311 (30.2) h*ng/mL. For the same compound, the “AUEC24 of plasma 24HC” value ([1]; Day 1, single dose 1200 mg) was 898.3 (16.6) h*ng/mL, the Emax ([1]; single dose 200 mg) was -17.7% and the Emax ([1]; single dose 600 mg) was -21.4%. The Emax ([1]; single dose 1200 mg) was -29.7%, the “% change from Baseline in AUEC24 of plasma 24HC” value (shortened to “% change from Baseline in AUEC24”) ([1]; single dose 200 mg) was −8.875% and the “% change from Baseline in E24 of plasma 24HC” value (“% change from Baseline in E24” below) ([1]; single dose 200 mg) was −20.29%. For the same compound, the “AUECt of plasma 24HC (time 0 to last sampling time point)” value (shortened to “AUECt of plasma 24HC”) ([1]; single dose 200 mg) was 1918 (26.0) h*ng/mL, the “E24 of plasma 24HC (observed effect at 24 hours)” value ([1]; single dose 200 mg) was 39.95 (25.4) ng/mL and the “Emax of plasma 24HC (maximum drug-induced effect)” value ([1]; single dose 200 mg) was 35.25 (24.3) ng/mL. The “Time to Emax of plasma 24HC” value ([1]; single dose 200 mg) was 48.00 (48.0-48.0) h, the “% change from Baseline in AUEC24” value ([1]; single dose 600 mg) was −8.482% and the “% change from Baseline in E24” value ([1]; single dose 600 mg) was −24.02%. For the same compound, the “AUECt of plasma 24HC” value ([1]; single dose 600 mg) was 2425 (31.2) h*ng/mL, the “E24 of plasma 24HC (observed effect at 24 hours)” value ([1]; single dose 600 mg) was 48.47 (32.0) ng/mL and the “Emax of plasma 24HC (maximum drug-induced effect)” value ([1]; single dose 600 mg) was 43.25 (35.3) ng/mL. The “Time to Emax of plasma 24HC” value ([1]; single dose 600 mg) was 48.00 (24.0-48.0) h, the “% change from Baseline in AUEC24” value ([1]; single dose 1200 mg) was −11.36% and the “% change from Baseline in E24” value ([1]; single dose 1200 mg) was −22.65%. The “AUECt of plasma 24HC” value ([1]; single dose 1200 mg) was 1627 (18.7) h*ng/mL, the “E24 of plasma 24HC (observed effect at 24 hours)” value ([1]; single dose 1200 mg) was 33.57 (19.8) ng/mL and the “Emax of plasma 24HC (maximum drug-induced effect)” value ([1]; single dose 1200 mg) was 27.30 (24.4) ng/mL. The “Time to Emax of plasma 24HC” value ([1]; single dose 1200 mg) was 48.00 (48.0-48.0) h, the CL/F [2, 3] was 470.8 L/h and the Lambda z [2, 3] was 0.1608 h⁻¹. The “AUC∞” value [2, 4] was 3917 ng·h/mL, the CL/F [2, 4] was 178.4 L/h and the Lambda z [2, 4] was 0.1634 h⁻¹. It also gave a Tmax ([2]; TAK-935 600 mg single dose, median) of 30 min, a CL/F [2, 5] of 119.8 L/h and a Lambda z [2, 5] of 0.1922 h⁻¹. For the same compound, the AUC(0-inf) [2, 6] was 720 ng·h/mL, the AUC(0-t) [2, 6] was 695 ng·h/mL and the Vd/F [2, 6] was 4260 L. It also gave a half-life [2, 6] of 353 min, an AUC(0-t) [2, 7] of 3860 ng·h/mL and a Vd/F [2, 7] of 2340 L. The half-life [2, 7] was 522 min, the AUC(0-inf) [2, 8] was 11400 ng·h/mL and the AUC(0-t) [2, 8] was 11400 ng·h/mL. It also gave a Vd/F [2, 8] of 769 L, a half-life [2, 8] of 304 min and a Tmax ([2]; human, oral, 200 mg, TAK-935 200 mg single dose, median, read-out: tmax) of 45 min. For the same compound, the Tmax ([2]; human, oral, 1200 mg, TAK-935 1200 mg single dose, median, read-out: tmax) was 30 min, the Tmax ([2]; human, oral, 1200 mg, TAK-935, single dose 200, 600, 1200 mg, read-out: Tmax (median), range) was 30 to 45 min and the Cmax [2, 9] was 850 ng/mL. For the same compound, the AUC [2, 9] was 698 ng·h/mL, the Cmax [2, 10] was 3280 ng/mL and the AUC [2, 10] was 3860 ng·h/mL. The Cmax [2, 11] was 10200 ng/mL and the AUC [2, 11] was 11300 ng·h/mL.
